Values of other authors in US12144813B2, “PLK1 inhibitor in combination with anti-angiogenics for treating metastatic cancer” (CARDIFF ONCOLOGY, INC., priority 2022, dated 2024).
Read-outs that look alike come from different tables or passages of the source.

Assays:
[1] = biological target: PLK1 (Homo sapiens, UniProt P53350); conditions: panel of 296 kinases, including other PLK members
[2] = system: AML cell lines
[3] = system: cell lines, both from solid as well as hematologic tumors; conditions: large number of cell lines, solid and hematologic tumors
[4] = system: cancer cell lines
[5] = system: disseminated model of AML
[6] = system: xenograft tumor; conditions: well tolerated doses in mice after oral administration
[7] = system: HT29 human colon adenocarcinoma xenografts; conditions: combination with irinotecan
[8] = system: patients with advanced/metastatic solid tumors
[9] = system: 2nd line patients, bev naïve or prior bev in 1st line; conditions: prior trials
[10] = system: patients with AML who were treatment naïve yet unsuitable for induction therapy; conditions: administered intravenously in combination with LDAC; phase II
[11] = system: AML; conditions: combination with LDAC; phase III

PLK1, sequence (P53350 whole entry): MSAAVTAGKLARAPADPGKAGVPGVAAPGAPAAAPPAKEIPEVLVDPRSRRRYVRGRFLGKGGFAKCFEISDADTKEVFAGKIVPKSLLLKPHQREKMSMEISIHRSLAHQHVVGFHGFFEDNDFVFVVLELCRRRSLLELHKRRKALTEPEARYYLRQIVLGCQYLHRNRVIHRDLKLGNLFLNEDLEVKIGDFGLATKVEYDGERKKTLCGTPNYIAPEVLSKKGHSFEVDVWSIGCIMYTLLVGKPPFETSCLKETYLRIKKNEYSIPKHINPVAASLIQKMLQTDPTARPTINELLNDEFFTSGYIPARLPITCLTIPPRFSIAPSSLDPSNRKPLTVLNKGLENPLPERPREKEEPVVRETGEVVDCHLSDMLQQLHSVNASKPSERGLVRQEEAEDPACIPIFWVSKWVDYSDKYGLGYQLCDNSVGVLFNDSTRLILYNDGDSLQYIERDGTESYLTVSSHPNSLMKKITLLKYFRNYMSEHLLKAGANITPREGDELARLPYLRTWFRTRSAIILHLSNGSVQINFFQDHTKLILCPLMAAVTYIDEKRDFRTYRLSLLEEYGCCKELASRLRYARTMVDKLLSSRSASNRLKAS

Q: What does the source list for CN1CCN(c2ccc(OC(F)(F)F)c(Nc3ncc4c(n3)-c3c(c(C(N)=O)nn3CCO)CC4)c2)CC1 [Onvansertib, 1-(2-hydroxyethyl)-8-{[5-(4-methylpiperazin-1-yl)-2-(trifluoromethoxy)phenyl]amino}-4,5-dihydro-1H-pyrazolo[4,3-h]quinazoline-3-carboxamide]?
A: Specificity for PLK1 [1]: high specificity; Inhibition of cell proliferation [2]: nanomolar concentrations; Potency in proliferation assays [3]: low nanomolar activity; Cell-cycle effect [4]: mitotic cell-cycle arrest followed by apoptosis; Survival of animals ([5]; disseminated model of AML, combination therapy with cytarabine): prolonged survival; Effect on cytarabine antitumor activity ([5]; disseminated models of AML, with cytarabine): significantly increased; Xenograft tumor growth [6]: inhibits xenograft tumor growth; Tumor regression compared to each agent alone [7]: enhanced tumor regression; Primary dose-limiting toxicities ([8]; phase I, patients with advanced/metastatic solid tumors): neutropenia and thrombocytopenia; Recovery from hematologic toxicities ([8]; reversible toxicities): ≤ 3 weeks

Q: Which results are given for “Bevacizumab: anti-angiogenics / angiogenesis inhibitor, also referred to herein as bev”?
A: mOS ([9]; bev naïve patients): 13.9 months; mPFS ([9]; bev naïve patients): 6.9 months; mOS ([9]; patients with prior bev): 12.5 months; mPFS ([9]; patients with prior bev): 6.7 months

Q: For CC[C@@H]1C(=O)N(C)c2cnc(Nc3ccc(C(=O)N[C@H]4CC[C@H](N5CCN(CC6CC6)CC5)CC4)cc3OC)nc2N1C(C)C [volasertib (BI6727)], which “OS compared with LDAC alone” value [10] is on record?
A: The value was “significant increase in OS”.

Q: What about the “Benefit of the combination” value [11] of the same compound?
A: The value was “no benefit”.

Q: What about the “Risk of severe infections” value [11] of the same compound?
A: Its value is “increased risk of severe infections”.
